Data taken from patent publication US20170239239A1, “Method for Inducing a Sustained Immune Response” (Immune Therapeutics Inc., priority 2016, published 2017).
Where two headings read alike, the source gives them in different places.

Key:
[1] = system: autism; experiment: Case reports, autism; details: child
[2] = system: fibromyalgia; experiment: Study in ten women with fibromyalgia; format: in vivo, human
Description: Baseline erythrocyte sedimentation rate predicted over 80% of the variance in drug response. […] Which confirms the ability of Immediate release naltrexone to decree pain and inflammation.

[3] = system: autism; experiment: Randomized, double blind, placebo-controlled study in autism; format: in vivo, human
[4] = system: CRPS
[5] = system: lymphocyte subsets of autistic children; experiment: Behavioral and immunological assessment in autism, double-blind naltrexone; parameters: species or system human; details: in vivo
Description: Opioid-immune interactions in autism: behavioral and immunological assessment during a double-blind treatment with naltrexone.
Changes in natural killer cells and activity were inversely related to plasma beta-endorphin levels.

[6] = system: Hepatitis B; experiment: Case report, Hepatitis B; format: in vivo, human
[7] = system: pleural mesothelioma; experiment: Case report, stage 4 pleural mesothelioma; format: in vivo, human; details: person; 4.5 mg nightly, no chemotherapy; February 2009 and 2010
Method: Person diagnosed with stage 4 pleural mesothelioma in December of 2008 and patients after consult with two other doctors it was determined due to the state of the diseases and other health issues to watch the tumors and not do chemotherapy. Prognosis was 6 to 12 months. Patient started 4.5 mg nightly and received on other treatment but did change diet.

[8] = system: Crohn's disease; experiment: Randomized placebo-controlled study in 40 subjects with active Crohn's disease; format: in vivo, human
Description: Forty subjects with active Crohn's disease were enrolled in the study. […] Providers and patients were masked to treatment assignment. The primary outcome was the proportion of subjects in each arm with a 70-point decline in Crohn's Disease Activity Index score (CDAI). The secondary outcome included mucosal healing based upon colonoscopy appearance and histology.

[9] = system: Rheumatoid Arthritis; experiment: Case reports, Rheumatoid Arthritis; format: in vivo, human
Method: A person diagnosed with Rheumatoid Arthritis in 2006 and was being treated with methotrexate and plaquenil but patients continued with pain and fatigue.
person two diagnosed 5 years ago with RA was treated with Methotrexate 25 mg per week and Remicade […] every 6 weeks, the fatigue and pain continued, along with the inflammation and general weakness. Sleep disturbed nightly due to pain in my shoulders and hips. Patient felt their life was not acceptable and none of the immunosuppression drugs were helping. […] Within two weeks patient stopped even ibuprophen. Rheumatoid factor has gone from 127 to 66 in 4 months and has stayed stable. […] Occasionally patient has pain but it is easily controlled with a normal dosage of ibuprophen.
A person, diagnosed with RA in 1999 stayed very active until 2005 on a combination of Methotrexate and Prednisone but was have difficulty maintaining their business due to fatigue and severe joint pain with deformity of their hands and elbows. Patient was told to increase their does and start a second immunomodulating drug. Patient no longer wanted to continue with immunosuppression drug or steroids due to the side effects.

[10] = system: patients with hematologic malignancies; details: cited from earlier work
[11] = system: colon cancer; experiment: Case report, stage 4 colon cancer; format: in vivo, human
Description: A person diagnosed with stage 4-colon cancer, 2007 which had spread to their lungs and liver, they removed 40% of their colon and began a round of chemotherapy and three surgeries removed 40% of their colon, half is their right lung and 75% of their liver. During the next 18 months received 47 weeks of chemotherapy (a combination of 4 chemo drugs at once).

[12] = system: Shingles; experiment: Case report, shingles; format: in vivo, human; details: person; 4.5 mg nightly since 2013
Method: A person diagnosed with Shingles in 2010 over 18 months had 8 major outbreaks, and was treated with acyclovir, and valacyclovir, as the outbreaks continued they prescribed Lidocaine patches and pain medications.

[13] = system: multiple sclerosis; experiment: Case reports, multiple sclerosis
[14] = normal volunteers, HIV positive, multiple sclerosis, autism, fibromyalgia, diabetes, and cancer patients; cited from earlier work
[15] = system: pancreatic cancer cells: MIA-PaCa2, PANC1, and BxPC3; experiment: Continuous 48 h exposure to naltrexone, pancreatic cancer cells
[16] = system: Autoimmune Hepatitis; experiment: Case report, Autoimmune Hepatitis Type 1; format: in vivo, human; details: first two weeks

SMILES: O=C1CC[C@@]2(O)[C@H]3Cc4ccc(O)c5c4[C@@]2(CCN3CC2CC2)[C@H]1O5 [Immediate release naltrexone, naltrexone]
- language skills [1]: improved
- side effect [1]: a little constipation
- illness ([1]; continually sick before): has not been sick since starting
- hyperactivity ([1]; 3 mg): increased for the first three weeks
- social behaviors ([1]; 3 mg, over the next months): skyrocketed
- reduction of fibromyalgia symptoms over placebo ([2]; 4.5 mg, entire cohort): greater than 30%
- Side effects (including insomnia and vivid dreams) ([2]; in vivo): rare
- mechanical and heat pain thresholds ([2]; laboratory visits): improved
- Actometer readings ([3]; children very active at baseline): improved in two children
- Changes in parent measures (CGI, Conners Impulsivity-Hyperactivity Factor, SE-Restlessness) and Teacher CGI ([3]; in vivo): achieved statistical significance
- subjects improved in two or more settings ([3]; in vivo): Eight of 13
- pain scores NRS ([4]; patient, EDS, 3 mg then 4.5 mg per day, from (7-10)/10): 3-5 /10
- post-operative pain NRS ([4]; patient, 3 weeks after resuming): 4-6 /10
- side effects ([4]; patient, 18 months): No side effects
- fixed dystonia of the leg ([4]; patient, at cast removal after ankle surgery): remission
- effect on the dystonia ([4]; patient, first months of treatment): no effect
- CRPS symptoms ([4]; patient, maintained for 18 months): resolved completely
- side effects ([4]; person five): No side effects
- pain, average on the Numeric Rating Scale (NRS) ([4]; person five, 4.5 mg per day at night, from 8 to 10 before): 5 to 6
- dystonic spasms ([4]; person five, within 2 months): discontinued
- T-cytotoxic-suppressor (CD4− CD8+) [5]: significant reduction
- T-helper-inducers (CD4+ CD8−) [5]: significant increase
- ALT/AST ([6]; child, 1 mg): decreased to normal
- viral load ([6]; child, 1 mg, within one month, from 59.2 million): 53,000
- serology ([6]; within 7 months): Sero-conversion to negative antigens and positive antibodies
- viral load ([6]; within 7 months): 551
- CAT scans [7]: no measurable growth of tumors
- subjects with at least a 70-point decline in CDAI scores ([8]; 4.5-mg daily oral, placebo 40% (p=0.009)): Eighty-eight
- remission with a CDEIS score<6 ([8]; after 12 weeks, placebo 8%): 33%
- endoscopic response (5-point decline in CDEIS) ([8]; after 12 weeks, placebo 28% (p=0.008)): 78%
- Fatigue ([9]; person two): gone
- Rheumatoid factor ([9]; person two, 4.5 mg at bedtime, from 127 in 4 months): 66
- disease course ([9]; person, 4.5 mg with multi-part protocol, 7 years later): not advanced
- use of other medication ([9]; person, titrated to 4.5 mg, March of 2010): Successfully discontinued methotrexate
- EORTC QLQ-C30 social functioning vs placebo ([10]; 3 mg capsules daily plus routine treatment, one month follow-up (p<0.05)): better condition
- EORTC QLQ-C30 social functioning, role functioning, nausea and vomiting and appetite loss vs placebo ([10]; 3 mg daily, 3-month follow-up (all p-values<0.05)): better
- EORTC QLQ-C30 physical, social, role functioning, global quality of life, nausea and vomiting and appetite loss vs placebo ([10]; 3 mg daily, 5-month follow-up): significantly better
- blood laboratory tests ([10]; 3 mg daily): no changes
- white blood cell, red blood cell and plate count ([10]; 3 mg daily): remained stable
- completion of chemotherapy protocol ([11]; person, 4.5 mg nightly with chemotherapy): without any major side effects
- scans every six months ([11]; until June of 2015): cancer free
- shingles outbreaks [12]: not had a single outbreak
- MRI over the last 8 years ([13]; person six): no progression of the disease
- relapses ([13]; person six, 4.5 mg at bedtime since 2002): not had a one relapse
- MRI ([13]; person, SPMS, 1.5 mg to 3 mg, January of 2011): reduced plaque and lesion size
- mobility ([13]; person, Secondary Progressive, 1.5 mg to 3 mg): upgraded from wheelchair to cane
- time to walking again with a cane ([13]; person, wheelchair bound, 3 mg nightly): ≤ 10 days
- Exacerbations ([13]; person, 1.5 mg increasing to 4.5 mg nightly, with hormones and Cortef): became less frequent and have stopped
- disease course ([13]; person, 4.5 mg for seven months): the disease has stabilized and the progressive deterioration has stopped
- relapses ([13]; person, 4.5 mg nightly, update 2010): no relapses
- side effects ([13]; person, after increase to 4.5 mg): some insomnia
- toxicity [14]: no major toxicity
- effect on pancreatic cancer cells [15]: no effect
- side effects [16]: vivid dreams and mild indigestion
